How the values were obtained:
in vivo [1] = conditions: rat
Protocol: (§1) Effect of palmitoylcarnitine chloride on the rectal absorption of drug entities. Experiments were performed with rats wherein each animal received an aqueous microenema applied to the rectal cavity. […] Blood levels were monitored and the amount of drug absorbed calculated against intravenous administration and expressed as percent bioavailability.
(§2) Concentration dependence of palmitoylcarnitine effect on rectal absorption of sodium cefoxitin, a β-lactam antibiotic. […] Blood samples were collected and assayed for sodium cefoxitin. The amount of drug absorbed is expressed as percent bioavailability as compared to intravenous administration.
(§3) Effect of various carnitine esters on rectal absorption of sodium cefoxitin, a β-lactam antibiotic, and cyclo(N-Ala-Tyr-D-Trp-Lys-Val-Phe)acetate, a polypeptide. […] Blood samples were collected and sodium cefoxitin or cyclo(N-AlA-TyR-D-Trp-Lys-Val-Phe)acetate assayed. The amount of drug absorbed is expressed as percent bioavailability versus intravenous administration.
(§4) Importance of carnitine-palmitoyl ester linkage in absorption promoting effects on rectal sodium cefoxitin absorption. […] Blood was collected and sodium cefoxitin measured. Absorption of sodium cefoxitin is expressed as percent bioavailability versus intravenous administration.

in vivo [2] = conditions: rat; remark: listed apart in the source
Protocol: Effect of palmitoylcarnitine chloride on small intestinal absorption of polypeptides. Experiments were performed with rats wherein each animal received an aqueous solution applied to the duodenal region. […] Blood levels were monitored and the amount of polypeptide absorbed calculated against intravenous administration and expressed as percent bioavailability.

[3] = rat, in vivo
Protocol: as §1, §2, §3, §4

[4] = Rectal absorption of target drug from aqueous microenema, percent bioavailability versus intravenous administration; conditions: carnitine without acyl ester
Protocol: as §1, §2, §3, §4

Sodium Cefoxitin Percent Bioavailability (mean ± SD) ([3]; pH 6)	Percent Bioavailability (mean ± SD) Control [3]	Percent Bioavailability (mean ± SD) with Palmitoylcarnitine-Cl [3]	Structure (SMILES)	also measured
	0.5 ± 0.1%	9 ± 0.6%	Nc1ccn([C@@H]2O[C@H](CO)[C@@H](O)[C@@H]2O)c(=O)n1 [Cytarabine]	
1 ± 0.8%			CCCCCCCCCCCCCCCC(=O)O [Palmitic acid]	
2 ± 1.1%	2 ± 1.1%	68 ± 7.2%	CO[C@@]1(NC(=O)Cc2cccs2)C(=O)N2C(C(=O)O)=C(COC(N)=O)CS[C@@H]21 [Sodium cefoxitin]	Percent Bioavailability (mean ± SD) Sodium Cefoxitin ([3]; pH 6): 2 ± 1.1%; Sodium Cefoxitin Percent Bioavailability mean ± SD ([3]; pH 6): 2 ± 1.1%

Continued, compound first:

Structure (SMILES)	Sodium Cefoxitin Percent Bioavailability (mean ± SD) ([3]; pH 6)	Percent Bioavailability (mean ± SD) Control [3]	Percent Bioavailability (mean ± SD) with Palmitoylcarnitine-Cl [3]	also measured
CC(C)[C@@H]1NC(=O)[C@H](CCCCN)NC(=O)[C@@H](Cc2c[nH]c3ccccc23)NC(=O)[C@H](Cc2ccc(O)cc2)NC(=O)[C@H](C)N(C)C(=O)[C@H](Cc2ccccc2)NC1=O [#-363,586, cyclo(N--Me--Ala--Tyr--DTrp--Lys--Val--Phe)acetate]				bioavailability (in vivo [1]; 0.1 mg, pH 6, Percent Bioavailability (mean ± SD) Cyclo(N-Ala-Tyr-D-Trp-Lys-Val-Phe)acetate): 7 ± 3.5%; bioavailability (in vivo [1]; Percent Bioavailability (mean ± SD) Control): 7 ± 3.5%; bioavailability (in vivo [1]; Percent Bioavailability (mean ± SD) with Palmitoylcarnitine-Cl): 100 ± 28.2%; bioavailability (in vivo [2]): 1%
C[N+](C)(C)CC(O)CC(=O)[O-] (stereo not shown) [Carnitine]	1 ± 0.6%			absorption promoting effect of carnitine alone [4]: no effect
Cn1c(=O)c2[nH]cnc2n(C)c1=O [Theophylline]		75 ± 3.3%	75 ± 2.6%	
